Assay results published in article PMC4413647, “Simultaneous targeting of androgen receptor (AR) and MAPK-interacting kinases (MNKs) by novel retinamides inhibits growth of human prostate cancer cell lines” (Oncotarget, 2014).
Where two headings read alike, the source gives them in different places.

Tests used:
MR49F cells = assay: MTT growth inhibition in Enzalutamide resistant MR49F cells; assay type: cell-based, human; conditions: for GI50: Homo sapiens, MR49F
Procedure: Figure 2 Effect of NRs on PCa cell growth and colony formation (A) Representative photographs of colonies formed in PCa cells at 14th day after initial treatment with specified compounds (5 μmol/L). Colonies were fixed with methanol and stained with crystal violet. (B) Data represents the mean ± S.E from three independent experiments. *, P< 0.05; ♣, P<0.01 compared to vehicle treated control. […] NRs that had promising inhibitory effect on cell proliferation on LNCaP cells were tested for their growth inhibitory effect in MR49F cells in comparison with Casodex and Abiraterone acetate by MTT assay.
(§1) Androgen-dependent (LNCaP), androgen-independent (PC-3) and castration resistant (C4-2B and 22Rv1) human prostate carcinoma cells were procured from American Type Culture Collection, Manassas, VA, USA and maintained in RPMI 1640 media (Gibco-Life Technologies, Grand Island, NY, USA) supplemented with 10% fetal bovine serum and 1% penicillin/streptomycin. […] Immortalized untransformed prostate epithelial cells, PWR1E from American Type Culture Collection were maintained in serum-free Keratinocyte media (Gibco) supplemented with epidermal growth factor and bovine pituitary extract. All cell lines were maintained in a 37 °C/5% CO2 humidified atmosphere.
(§2) Cell proliferation assay was performed as described previously. For cell growth experiment, cells were treated with the NRs for 7 days. MTT assay was performed at the end of the experiment. Calculations of combination indices were done using the Calcusyn program (Biosoft, Cambridge, United Kingdom). For colony formation assay, cells were plated 1000 per well in complete media and allowed to adhere for 24 h. The next day cells were treated with indicated compounds (5 μM). After 24 h compound containing media were removed, and cells were allowed to form colonies in complete media. Approximately 2 weeks later the colonies were fixed, stained with 0.5% crystal violet (sigma) for 30 min and counted manually. Results represent the mean ± standard deviation of three independent experiments.

22Rv1 cells = assay: MTT cell proliferation assay, 7 d, 22Rv1; assay type: cell-based; conditions: Homo sapiens, 22Rv1, 168 h, 7 d treatment
Description: as §1, §2

PWR-1E cells = assay: MTT cell proliferation assay, 7 d, PWR-1E; assay type: cell-based; conditions: Homo sapiens, 168 h, immortalized untransformed prostate cells, 7 d treatment
Description: as §1, §2

LNCaP cells = assay: MTT cell proliferation assay, 7 d, LNCaP; assay type: cell-based, human; conditions: Homo sapiens, LNCaP, 168 h, 7 d treatment
Description: as §1, §2

PC-3 cells [1] = assay: MTT cell proliferation assay, 7 d, PC-3; assay type: cell-based; conditions: Homo sapiens, PC-3, 168 h, 7 d treatment
Description: as §1, §2

C4-2B cells = assay: MTT cell proliferation assay, 7 d, C4-2B; assay type: cell-based; conditions: Homo sapiens, 168 h, 7 d treatment
Description: as §1, §2

PCa cells = assay: MTT cell viability in PCa cells (LNCaP, PC-3, C4-2B, 22Rv1); assay type: cell-based, human; conditions: for GI50: Homo sapiens, range over PCa cell lines; for growth inhibitory effect or differential sensitivity: PCa cells vs untransformed cells
Procedure: as §2

PC-3 cells [2] = assay: Boyden chamber matrigel invasion assay; assay type: cell-based, human; conditions: PC-3, 5 μM, 24 h
Procedure: Figure 5 Anti-migratory and anti-invasive potential of NRs (A) Effect of NRs treatment (5 μmol/L) on PC-3 cell migration was assessed by wound healing assay after 24 h of wound formation. Representative photomicrographs of initial and final wounds are shown at 100x magnification. (B) Effect of NRs on PC-3 cell invasion was evaluated by transwell migration assay. PC-3 cells were seeded on matrigel coated boyden chamber and treated with NRs (5 μmol/L, 24 h). Photographs represent the extent of cell invasion in each of the treated cells. (C) Western blot analysis of the effect of NRs on the expression of cadherins in PC-3 cells. Cells were treated with indicated compound 20 μmol/L for 24 h.
The invasion assay in PC-3 cells was performed using Matrigel (BD Biosciences, Bedford, MA, USA)-coated transwell cell culture chambers (8 μm pore size, EMD Millipore, Temecula, CA, USA) as described previously (43). Briefly, PC-3 cells (5 × 10^4 cells/well) were cultured in the upper chamber of the transwell insert for 24 h in serum-free RPMI-1640 medium. The cells were then treated with 5 μM of indicated compounds for 24 h. RPMI-1640 medium containing 10% FBS was placed in the lower chamber. At the end of incubation, the top surface of the non-migrated cells were scraped gently with cotton swabs and the cells on the lower surface of the membrane (migrated cells) were fixed for 15 min with cold methanol and stained with crystal violet. Cells that had migrated to the bottom of the membrane were visualized and counted using an inverted microscope. For each replicate (n = 3), cells in three randomly selected fields were counted and averaged.

PC-3 cells [3] = assay: Wound healing migration assay; assay type: cell-based, human; conditions: 5 μM, 24 h
Procedure: Figure 5 Anti-migratory and anti-invasive potential of NRs (A) Effect of NRs treatment (5 μmol/L) on PC-3 cell migration was assessed by wound healing assay after 24 h of wound formation. Representative photomicrographs of initial and final wounds are shown at 100x magnification. (B) Effect of NRs on PC-3 cell invasion was evaluated by transwell migration assay. PC-3 cells were seeded on matrigel coated boyden chamber and treated with NRs (5 μmol/L, 24 h). Photographs represent the extent of cell invasion in each of the treated cells. (C) Western blot analysis of the effect of NRs on the expression of cadherins in PC-3 cells. Cells were treated with indicated compound 20 μmol/L for 24 h. […] For wound healing assay highly metastatic PC-3 cells were plated in a 24 well plate at a seeding density of 5 × 10^5 cells/ well and allowed to form a confluent monolayer for 24 h. Cells were made dormant by pretreating with 0.5 μmol/L mitomycin C for 2 h to ensure that wounds are filled due to cell migration and not by cell proliferation. Subsequently, the monolayer was scratched with a pipette tip, washed with media to remove floating cells, and photographed (time 0 h). Cells were then treated with indicated compounds (5 μM) and the experiment was terminated as soon as wound was completely filled in vehicle treated controls. Cells were then photographed again using Nikon TE2000 microscope at three randomly selected sites per well [43].

Bax, cleaved PARP-1 = assay: Western blot of Bax and cleaved PARP-1 in PCa cells; assay type: cell-based, human; conditions: 20 μM, 24 h, among the lead NRs
Procedure: Figure 4 Effect of NRs on cell cycle and apoptosis (A) LNCaP cells treated with 5 μM of NRs and other compounds for 24 h were stained with PI and analysed with a FACS calibur flow cytometer. (B) Total cell lysates from PCa cells treated with 20 μM of NRs were separated by SDS-PAGE and probed with cyclin D1 and B antibodies. […] (C) LNCaP cells were treated with indicated compounds (5 μmol/L) for 24 h and apoptosis induction was examined by oligonucleosomal fragmentation. Data are shown relative to vehicle treated control and the bars are means of three replicate determinations plus standard deviations. *, P< 0.01; ♣, P<0.05 compared with vehicle treated control. (D) PCa cells as indicated were seeded in 24 well plate, and treated with 5 μmol/L of NRs the subsequent day. After 24 h the plates were analyzed for apoptotic and viable cells using acridine orange/ethidium bromide staining. (E) Western blot analysis of apoptosis associated Bax and cPARP in PCa cells treated with NRs (20 μmol/L) for 24 h. (F) Apoptosis induction in LNCaP cells treated with 5 μmol/L of VNLG-147 and -152 in the presence or absence of ZVAD (5 μmol/L) was assessed by oligonucleosomal fragmentation after 24 h incubation. *, P< 0.05 compared with vehicle treated control. […]

[4] = DHT induced, read-out: GI50 LNCaP, DHT induced
[5] = read-out: GI50 MR49F (Figure 2C)

Row | SMILES | GI50 (22Rv1 cells) | GI50 (LNCaP cells; read-out: GI50 LNCaP) | GI50 (LNCaP cells; [4]) | GI50 (PC-3 cells [1]) | GI50 (PCa cells) | GI50 (MR49F cells; read-out: GI50 MR49F) | GI50 (PWR-1E cells) | GI50 (C4-2B cells) | GI50 (MR49F cells; [5]) | effect on growth of MR49F cells (MR49F cells; up to a concentration of 100 μmol/L) | growth inhibitory effect or differential sensitivity (PCa cells) | percentage of cell invasion compared to control (PC-3 cells [2]) | PC-3 cell migration to the denuded zone (PC-3 cells [3]) | efficacy in inducing PARP cleavage and/or increasing Bax expression (Bax, cleaved PARP-1)
1 | CC(=O)O[C@H]1CC[C@@]2(C)C(=CC[C@@H]3[C@@H]2CC[C@]2(C)C(c4cccnc4)=CC[C@@H]32)C1 [AA, Abiraterone acetate, reference compound] | 2.97 µM | 2.45 µM | 2.69 µM | 7.62 µM | – | 27.5 µM | 20.2 µM | 1.47 µM | – | – | – | – | – | –
2 | CC1=C(/C=C/C(C)=C/C=C/C(C)=C/C(=O)O)C(C)(C)CCC1 [ATRA, all-trans-retinoic acid, reference compound] | 25.1 µM | 47.9 µM | 39.8 µM | 36.3 µM | – | – | 75.3 µM | 11.7 µM | – | – | – | – | – | –
3 | CC(O)(CS(=O)(=O)c1ccc(F)cc1)C(=O)Nc1ccc(C#N)c(C(F)(F)F)c1 (centres unmarked) [Casodex, reference compound] | 3.81 µM | 2.61 µM | 2.95 µM | 9.15 µM | – | 43.6 µM | 69.1 µM | 1.51 µM | – | – | – | – | – | –
4 | CC1=C(/C=C/C(C)=C/C=C/C(C)=C/C(=O)Nc2ccc(O)cc2)C(C)(C)CCC1 [Compound 4-HPR, 4-hydroxyphenyl retinamide, reference compound] | 3.23 µM | 2.69 µM | 2.45 µM | 3.54 µM | – | – | 1.07 µM | 3.11 µM | – | – | – | – | – | –
5 | CNC(=O)c1ccc(N2C(=S)N(c3ccc(C#N)c(C(F)(F)F)c3)C(=O)C2(C)C)cc1F [MDV3100, Enzalutamide, reference compound] | – | – | – | – | – | – | 17 µM | 1.54 µM | > 100 µM | no significant effect | – | – | – | –
6 | CC1=C(/C=C/C(C)=C/C=C/C(C)=C/C(=O)O)C(C)(C)CCC1n1ccnc1 (centres unmarked) [VN/14-1] | 12.9 µM | 11.3 µM | 12.9 µM | 36.3 µM | – | – | 69.2 µM | 9.76 µM | – | – | – | – | – | –
7 | CC1=C(/C=C/C(C)=C/C=C/C(C)=C/C(=O)Nc2ccc(O)cc2)C(C)(C)CCC1n1ccnc1 (centres unmarked) [VN/66-1] | 2.95 µM | 4.67 µM | 1.54 µM | 10.7 µM | – | – | 19.1 µM | 2.38 µM | 6.76 µM | – | – | – | – | –

The next lines start with results.

Row | GI50 (22Rv1 cells) | GI50 (LNCaP cells; read-out: GI50 LNCaP) | GI50 (LNCaP cells; [4]) | GI50 (PC-3 cells [1]) | GI50 (PCa cells) | SMILES | GI50 (MR49F cells; read-out: GI50 MR49F) | GI50 (PWR-1E cells) | GI50 (C4-2B cells) | GI50 (MR49F cells; [5]) | effect on growth of MR49F cells (MR49F cells; up to a concentration of 100 μmol/L) | growth inhibitory effect or differential sensitivity (PCa cells) | percentage of cell invasion compared to control (PC-3 cells [2]) | PC-3 cell migration to the denuded zone (PC-3 cells [3]) | efficacy in inducing PARP cleavage and/or increasing Bax expression (Bax, cleaved PARP-1)
8 | 2.23 µM | 2.45 µM | 2.23 µM | 4.26 µM | 1.5 to 5.5 µM | CC1=C(/C=C/C(C)=C/C=C/C(C)=C/C(=O)NC(C)(C)C)C(C)(C)CCC1n1ccnc1 (centres unmarked) [VNLG-145] | – | 25.1 µM | 2.14 µM | 3.89 µM | – | – | – | – | –
9 | 39.8 µM | 57.5 µM | 52.5 µM | 57.5 µM | – | CC1=C(/C=C/C(C)=C/C=C/C(C)=C/C(=O)Nc2cc(C(F)(F)F)ccc2C(F)(F)F)C(C)(C)CCC1n1ccnc1 (centres unmarked) [VNLG-146] | – | 63.1 µM | 11.7 µM | – | – | did not display any notable growth inhibitory effect or differential sensitivity | – | – | –
10 | 2.04 µM | 1.86 µM | 1.41 µM | 2.95 µM | 1.5 to 5.5 µM | CC1=C(/C=C/C(C)=C/C=C/C(C)=C/C(=O)Nc2ccccc2O)C(C)(C)CCC1n1ccnc1 (centres unmarked) [VNLG-147] | – | 71.5 µM | 2.66 µM | 4.26 µM | – | – | 33 | potentially suppressed | greater efficacies
11 | 39.8 µM | 22.9 µM | 19.1 µM | 36.3 µM | – | CC1=C(/C=C/C(C)=C/C=C/C(C)=C/C(=O)Nc2ncnc3[nH]cnc23)C(C)(C)CCC1n1ccnc1 (centres unmarked) [VNLG-148] | – | 43.6 µM | 15.5 µM | – | – | did not display any notable growth inhibitory effect or differential sensitivity | – | – | –
12 | 2.23 µM | 3.23 µM | 2.69 µM | 4.36 µM | 1.5 to 5.5 µM | CC1=C(/C=C/C(C)=C/C=C/C(C)=C/C(=O)Nc2ccccc2)C(C)(C)CCC1n1ccnc1 (centres unmarked) [VNLG-153] | – | 39.8 µM | 2.97 µM | 7.41 µM | – | – | 35 | potentially suppressed | –
